Values joined by “and” are separate entries in the source; they are usually repeats but may differ in a detail not shown here. Equal entries are not always repeated.
Key:
5-lipoxygenase = biological target: T1, 5-lipoxygenase (Rattus norvegicus, UniProt P12527); assay: PMN5LO assay: inhibition of LTB4 production in A23187-stimulated rat peritoneal PMN (RIA); assay type: cell-based; conditions: for IC50: estimated concentration required for 50% inhibition
T1 construct: endogenous in cells; host or cells: casein-elicited peritoneal polymorphonuclear leukocytes of male Sprague-Dawley rats
T1 sequence (P12527 1-673): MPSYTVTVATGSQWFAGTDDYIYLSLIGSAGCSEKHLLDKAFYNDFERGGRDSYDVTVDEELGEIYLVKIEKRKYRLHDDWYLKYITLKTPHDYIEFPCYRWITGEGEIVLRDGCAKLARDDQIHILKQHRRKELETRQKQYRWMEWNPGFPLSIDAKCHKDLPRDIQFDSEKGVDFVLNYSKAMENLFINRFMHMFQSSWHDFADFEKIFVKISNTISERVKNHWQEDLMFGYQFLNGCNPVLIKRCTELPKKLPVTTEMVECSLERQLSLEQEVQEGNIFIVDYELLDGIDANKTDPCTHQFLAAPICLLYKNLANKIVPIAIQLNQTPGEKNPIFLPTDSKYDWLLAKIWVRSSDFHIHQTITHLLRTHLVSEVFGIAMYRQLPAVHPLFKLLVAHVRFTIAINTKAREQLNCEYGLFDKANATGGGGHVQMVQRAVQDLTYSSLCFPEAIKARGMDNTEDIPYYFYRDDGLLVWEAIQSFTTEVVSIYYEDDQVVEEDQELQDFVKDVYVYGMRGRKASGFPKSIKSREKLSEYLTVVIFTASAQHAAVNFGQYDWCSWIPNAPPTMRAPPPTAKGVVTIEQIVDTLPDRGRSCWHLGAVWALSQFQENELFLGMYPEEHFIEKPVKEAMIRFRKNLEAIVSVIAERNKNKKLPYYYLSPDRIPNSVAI
Description: (§1) Two screening methods were employed for the purposes of evaluating the biological activities of the compounds of the present invention. The PMN5LO assay is a direct measure of the capacity to inhibit 5-lipoxygenase. The second protocol, RSVM-CO, is a method of determining inhibition of cyclooxygenase enzyme activity and as such it serves as a negative control.
Elicition of Rat Peritoneal polymorphonuclear leukoytes (PMN)
Male Sprague-Dawley rats (about 350 grams) were injected intraperitoneally the day before use with 8 ml of 12% sodium caseinate. The next day the animals were killed by CO2 asphyxiation and the peritoneal cavity lavaged twice with 20 ml of Hanks balanced salts containing 15 mM HEPES (pH 7.4), 1.4 mM Ca^++ and 0.7 mM Mg^++ (Hepes-Hanks). The suspensions were filtered through plastic mesh and centrifuged at […] for 5 minutes. The cells were resuspended in 50 ml Hepes-Hanks and recentrifuged. The PMN pellets were combined and suspended at 1.25×10^7 cells/ml.
The cell suspension was then diluted 1:10, preincubated 5 minutes at 37° C. and distributed in 200 μl aliquots in the wells of 96 well microtiter plates. The wells had previously received samples of the compounds of the present invention, controls, etc., in 25 μl of 0.001% fatty acidfree BSA in Hepes-Hanks. The plates were incubated 2 minutes at 37° C. and then the cells were stimulated to produce LTB4 by the addition of 25 μl of 100 μM calcium ionophore, designated A23187. After 4 minutes at 37° C. the plates were frozen in dry ice.
Radioimmunoassay (RIA) of LTB4
The frozen plates were thawed to 4° C. and 25 μl aliquots removed to V well plates. Antibody to LTB4 (50 μl) was added and, after 15 minutes at room temperature, 50 μl of ^3 H-LTB4 was added and the plates were stored overnight at 4° C. to allow equilibration. The next day the "free" 3H-LTB4 was removed by adsorption to dextran coated charcoal [90 μl per well of a 4% charcoal suspension with 0.25% Dextran T-70 in 10 mM potassium phosphate (pH 7.3) containing lmM EDTA and 0.25 mM thimerasol] during a 10 minute ice temperature incubation. The charcoal was removed by a 10 minute centrifugation at 200 sg. Aliquots of the supernatant were counted in a Packard 460, analyzed in a Masscomp computer and the data drawn up as % inhibition of LTB4 production.

cyclooxygenase = biological target: T2, cyclooxygenase (Ovis aries, UniProt P05979); assay: RSVM-CO: Ram Seminal Vesicle Microsomal Cyclooxygenase assay; assay type: biochemical; conditions: for inhibition at 0.1 µg/mL: 0.1 μg/ml; for inhibition at 1 µg/mL: 1 μg/ml; for inhibition at 10 µg/mL: 10 μg/ml
T2 construct: Ram seminal vesicular glands were trimmed of fat; from tissue; host or cells: ram seminal vesicular glands, microsomal pellet (105K xg)
T2 sequence (P05979 25-600): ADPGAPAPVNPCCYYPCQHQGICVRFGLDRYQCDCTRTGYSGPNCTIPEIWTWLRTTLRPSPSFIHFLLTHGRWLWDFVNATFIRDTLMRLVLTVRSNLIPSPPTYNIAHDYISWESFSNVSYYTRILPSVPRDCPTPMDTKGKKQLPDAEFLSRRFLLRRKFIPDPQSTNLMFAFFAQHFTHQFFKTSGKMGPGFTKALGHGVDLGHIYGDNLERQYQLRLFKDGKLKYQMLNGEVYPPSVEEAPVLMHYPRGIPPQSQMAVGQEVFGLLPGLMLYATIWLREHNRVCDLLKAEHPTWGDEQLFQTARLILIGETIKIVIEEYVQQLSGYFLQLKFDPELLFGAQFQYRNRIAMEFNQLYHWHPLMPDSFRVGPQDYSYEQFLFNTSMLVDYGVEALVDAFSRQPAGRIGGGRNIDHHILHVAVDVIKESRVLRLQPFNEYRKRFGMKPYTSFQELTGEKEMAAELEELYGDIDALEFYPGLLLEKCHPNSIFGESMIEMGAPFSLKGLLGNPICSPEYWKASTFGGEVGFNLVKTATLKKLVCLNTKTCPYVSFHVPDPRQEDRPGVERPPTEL
Text: as §1
B. Ram Seminal Vesicle Microsomal Cyclooxygenase (RSVM-CO) Assay Protocol
Ram seminal vesicular glands were trimmed of fat, 50 grams diced into 250 mls ice cold 0.1 M potassium phosphate (pH 7.6) buffer and homogenized using a Brinkman Polytron. The suspension was centrifuged 10 minutes at […] (4° C.) and the supernatant filtered through two cheesecloth layers. The filtrate was centrifuged 160 minutes at 105K xg, the supernatant thereof discarded, and the pellet surface rinsed with a small volume of buffer. The pellets were combined in a small volume, briefly homogenized with the Polytron and frozen in 0.5 ml aliquots at -80° C. The protein concentration was about 50 mg/ml.
The thawed enzyme was diluted 1:63 with 0.125 M Na EDTA (pH 8.0) containing 50 μg/ml BSA. A substrate-cofactor premix was prepared with 66 μM ^14 C-arachidonic acid (about 20K cpm/12.5 μl) in 500 μl 0.125 M Na EDTA (pH 8.0) plus 10 μl 50 mM hydroquinone and 10 μl 200 mM glutathione. To each sample well in the 96 well plate, agents dissolved in 0.5 μ DMSO were added, followed by 12.5 μl of the diluted enzyme. After a 4 minute preincubation at room temperature, 12.5 μl of the substrate-cofactor mix was added to start the reaction. The reaction was terminated after 20 minutes at room temperature by adding 25 μl of methanol containing 200 μg PGE2 and 400 μg AA per ml.
The entire reaction mixture was spotted onto a preadsorbent silica gel GF thin layer plate and, after air drying 45 minutes, developed 12 cm in ethyl acetate:glacial acetic acid (99:1).
The developed lanes were scanned for the distribution of radiolabel using a Bioscan Imaging Detector and the integrated peaks compared to standards and controls yielding % inhibition.

SMILES | IC50 (5-lipoxygenase) | inhibition at 1 µg/mL (5-lipoxygenase; 1 μg/ml) | inhibition at 0.012 µg/mL (5-lipoxygenase; 0.012 μg/ml) | inhibition at 0.037 µg/mL (5-lipoxygenase; 0.037 μg/ml) | inhibition at 0.11 µg/mL (5-lipoxygenase; 0.11 μg/ml) | inhibition at 0.1 µg/mL (cyclooxygenase) | inhibition at 0.33 µg/mL (5-lipoxygenase; 0.33 μg/ml) | PMN5LO % inhibition (5-lipoxygenase; 1 μg/ml) | other results
CCC(=O)Oc1cc(-c2cccc(C(F)(F)F)c2)sc1-c1ccccc1 [Compound 6] |  | 22% |  |  |  |  |  |  | 
CC(=O)Oc1cc(-c2ccccc2)oc1-c1ccccc1 |  |  | 25% | 6% | 36% |  | 53% | 33% and 66% | 
CC(=O)Oc1cc(-c2ccccc2)sc1-c1cccnc1 [Compound 16, 3-Acetoxy-2-(3'-pyridyl)-5-phenylthiophene] | 230 nM | 100% |  |  |  | 0% | 94% | 88% | PMN5LO % inhibition (5-lipoxygenase; 0.33 μg/ml): 84%; inhibition at 1 µg/mL (cyclooxygenase): 0%
CC(=O)Oc1csc(-c2ccccc2)c1 [Compound 1] |  | 18% | 5% | 0% | 1% |  | 19% |  | 
CC(=O)Oc1cscc1-c1ccccc1 [Compound 15, 3-Acetoxy-4-phenylthiophene] |  | 10% | 9% | 0% | 0% | 0% | 0% |  | inhibition at 1 µg/mL (cyclooxygenase): 0%
c1ccc(-c2ccc(-c3ccccc3)s2)cc1 | 4000 nM | 38% | 13% | 0% | 15% |  | 23% |  | 
Oc1cc(-c2ccccc2)sc1-c1cccnc1 [Compound 22] |  | 87% | 14% | 19% | 45% |  | 81% |  | 
Oc1cc(-c2ccccc2)sc1-c1ccccc1 [Compound 4, 3-Hydroxy-2,5-diphenylthiophene] | 110 nM | 99% | 17% |  |  | 24% | 98% | 88% | PMN5LO % inhibition (5-lipoxygenase; 0.012 μg/ml): 11%; PMN5LO % inhibition (5-lipoxygenase; 0.11 μg/ml): 97% and 70%; PMN5LO % inhibition (5-lipoxygenase; 0.33 μg/ml): 85%; inhibition at 0.4 µg/mL (cyclooxygenase; 0.4 μg/ml): 18%; inhibition at 1 µg/mL (cyclooxygenase): 6%; inhibition at 2 µg/mL (cyclooxygenase; 2 μg/ml): 46%; inhibition at 10 µg/mL (cyclooxygenase): 92%
Oc1c(-c2ccccc2)sc(-c2ccccc2)c1-c1ccccc1 [Compound 2, 3-Hydroxy-2,4,5-triphenylthiophene] | ~3000 nM | 53% | 22% | 14% | 0% |  |  |  | inhibition at 0.3 µg/mL (5-lipoxygenase; 0.3 μg/ml): 0%; inhibition at 10 µg/mL (5-lipoxygenase; 10 μg/ml): 95%; inhibition at 10 µg/mL (cyclooxygenase): 23%
COc1cc(-c2ccccc2)sc1-c1ccccc1 [Compound 19] |  | 0% | 0% | 0% | 0% |  | 0% |  | 

The next lines start with results.

IC50 (5-lipoxygenase) | inhibition at 1 µg/mL (5-lipoxygenase; 1 μg/ml) | inhibition at 0.012 µg/mL (5-lipoxygenase; 0.012 μg/ml) | inhibition at 0.037 µg/mL (5-lipoxygenase; 0.037 μg/ml) | inhibition at 0.11 µg/mL (5-lipoxygenase; 0.11 μg/ml) | inhibition at 0.1 µg/mL (cyclooxygenase) | inhibition at 0.33 µg/mL (5-lipoxygenase; 0.33 μg/ml) | PMN5LO % inhibition (5-lipoxygenase; 1 μg/ml) | SMILES | other results
> 3000 nM |  |  |  |  |  |  |  | COc1ccc(-c2sc3c(c2OC(C)=O)CCCc2ccccc2-3)cc1 [Compound 20] | 
88 nM and 74 nM |  | 27% | 57% | 100% | 13% |  |  | CC(=O)Oc1cc(-c2ccccc2)sc1-c1ccccc1 [Compound 3] | PMN5LO % inhibition (5-lipoxygenase; 0.012 μg/ml): 38%; PMN5LO % inhibition (5-lipoxygenase; 0.037 μg/ml): 56%; inhibition at 0.05 µg/mL (5-lipoxygenase; 0.05 μg/ml): 100%; inhibition at 0.01 µg/mL (cyclooxygenase; 0.01 μg/ml): 13%; inhibition at 1 µg/mL (cyclooxygenase): 8%; inhibition at 10 µg/mL (cyclooxygenase): 29%
650 nM | 100% |  |  |  | 100% | 85% | 97% | COc1ccc(-c2sc3c(c2OC(C)=O)CCCC3)cc1 | PMN5LO % inhibition (5-lipoxygenase; 0.33 μg/ml): 88%; IC50 (5-lipoxygenase; unit inferred): 380 nM; inhibition at 1 µg/mL (cyclooxygenase): 11%
200 nM |  | 0% |  |  | 60% | 100% | 58% | COCC(=O)Oc1cc(-c2ccccc2)sc1-c1ccccc1 [Compound 10] | PMN5LO % inhibition (5-lipoxygenase; 0.037 μg/ml): 28% and 51%; PMN5LO % inhibition (5-lipoxygenase; 0.11 μg/ml): 73%; IC50 (5-lipoxygenase; unit inferred): 110 nM
 |  |  |  |  |  |  | 18% | CC(=O)Oc1c(-c2ccccc2)sc(-c2ccccc2)c1-c1ccccc1 [Compound 8] | 
 | 13% |  |  |  |  |  |  | CC(=O)Oc1c(C)sc(-c2ccccc2)c1-c1ccccc1 [Compound 9] | 
120 nM | 96% | 20% | 46% | 96% |  | 100% |  | Cc1ccccc1-c1cc(O)c(-c2ccccc2)s1 [Compound 18, 3-Hydroxy-5-(2-methylphenyl)-2-phenylthiophene] | 
 | 38% |  |  |  |  |  |  | CC(=O)Oc1cc(-c2cccc(C(F)(F)F)c2)sc1-c1ccccc1 [Compound 5] | 
2500 nM |  |  |  |  |  |  |  | COc1ccc(-c2sc3c(c2OC(C)=O)Cc2ccccc2-3)cc1 | PMN5LO % inhibition (5-lipoxygenase; 0.012 μg/ml): 0%; inhibition at 0.37 µg/mL (5-lipoxygenase; 0.37 μg/ml (so in the source)): 42%
 | 79% | 15% | 15% | 17% |  | 34% |  | CC(=O)Oc1cc(-c2ccccc2)sc1-c1ccccc1C | 

Reference: US4999436A, “Aryl-substituted thiophene 3-ols, derivatives and analogs useful as lipoxgenase inhibitors” (Merck & Co., Inc., priority 1989, dated 1991)
